Laboratory results from patent US10945995B2, “Compositions and methods for channelopathy disorders-targeting fluid movement across membranes” (DEHA, LLC, priority 2017, dated 2021).

Experiments:
AQP-11 = biological target: T1, AQP-11 (Homo sapiens, UniProt Q8NBQ7); assay: Kinetic screening assay, cells overexpressing AQP-11; type: cell-based
T1 construct: expressed in transfected cells
T1 sequence (Q8NBQ7 1-271): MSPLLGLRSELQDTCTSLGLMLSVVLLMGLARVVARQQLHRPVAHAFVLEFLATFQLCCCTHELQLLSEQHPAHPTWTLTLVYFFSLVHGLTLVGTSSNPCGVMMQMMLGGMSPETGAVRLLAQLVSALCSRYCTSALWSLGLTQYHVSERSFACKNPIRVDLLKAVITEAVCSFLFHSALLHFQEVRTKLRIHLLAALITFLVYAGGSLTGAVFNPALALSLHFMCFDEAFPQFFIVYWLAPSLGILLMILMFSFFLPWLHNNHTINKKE

[1] = test system: rat traumatic brain injury model; settings: cited from earlier work
AQP-4 [2] = settings: rat model of epilepsy; cited from earlier work
AQP-4 [3] = settings: pre-treatment, mouse model of stroke; cited from earlier work
AQP-2 = biological target: T2, AQP-2 (Homo sapiens, UniProt P41181); assay: Kinetic screening assay, cells overexpressing AQP-2; type: cell-based
T2 construct: expressed in transfected cells
T2 sequence (P41181 1-271): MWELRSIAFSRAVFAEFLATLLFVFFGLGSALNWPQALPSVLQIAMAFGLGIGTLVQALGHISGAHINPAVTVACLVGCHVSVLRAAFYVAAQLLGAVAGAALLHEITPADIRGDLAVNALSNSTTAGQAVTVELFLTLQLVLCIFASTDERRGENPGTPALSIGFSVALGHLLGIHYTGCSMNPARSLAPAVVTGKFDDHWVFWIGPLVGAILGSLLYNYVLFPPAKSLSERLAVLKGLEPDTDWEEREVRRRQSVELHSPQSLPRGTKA
Excerpt: Effects of candidate AQP-4 inhibitors on cell swelling in vitro. Kinetic screening assay: In order to assess the effects of the resulting 50 compounds selected from in silico screening efforts on cell swelling, a calcein-fluorescence assay that measures plasma membrane water permeability was used. Alvarez-Leefmans et al. established a technique to estimate changes in cell volume as a function of changes in concentration using a calcein-AM, a non-fluorescent and membrane-permeant dye.^53 After entering the cell, calcein-AM is converted to calcein by removal of the acetoxymethyl group (AM) by intracellular esterases. […] The fluorescence signal is calibrated by brief exposures of the calcein-loaded cells to, for example, 15% hypotonic and 15% hypertonic solutions and the average signal intensity from the cell is detected. […] The test compounds were then added (4-9 μM) and the fluorescence was measured using a Biotek plate reader (excitation 490 nm and emission 515 nm). Relative fluorescence intensity (RfU) was calculated as the fluorescence intensity of each well divided by the mean fluorescence intensity of cells treated with DMSO (control). […]
AQP-2 DHA-35. Using the kinetic screening assay described hereinabove, cells overexpressing AQP-2 were screened with test compounds of interest and their fluorescence signal were evaluated. […]

AQP-6 = biological target: T3, AQP-6 (Homo sapiens, UniProt Q13520); assay: Kinetic screening assay, cells overexpressing AQP-6; type: cell-based
T3 construct: expressed in transfected cells
T3 sequence (Q13520 1-282): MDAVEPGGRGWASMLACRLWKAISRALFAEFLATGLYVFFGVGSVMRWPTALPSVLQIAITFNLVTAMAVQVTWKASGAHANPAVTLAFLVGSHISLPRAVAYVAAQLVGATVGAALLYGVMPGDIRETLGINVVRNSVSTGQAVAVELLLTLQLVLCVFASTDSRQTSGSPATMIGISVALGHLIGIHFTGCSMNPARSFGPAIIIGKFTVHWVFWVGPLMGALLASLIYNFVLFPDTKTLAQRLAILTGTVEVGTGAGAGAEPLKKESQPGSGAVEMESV

Cc1onc(-c2ccccc2)c1C(=O)NCc1nnc(SCc2ccccc2Cl)n1CC(C)C [DHA-37]
AQP-11 activity, fluorescence signal (AQP-11): modulators

CC(=O)Nc1nnc(S(N)(=O)=O)s1 [Acetazolamide, acetazolamide]
edema [1]: reduce edema
AQP-4 inhibition in vivo (AQP-4 [2]): inhibit AQP-4

O=C(Nc1nncs1)c1cccnc1 [TGN-020, 2-(nicotinamide)-1,3,4-thiadiazole]
edema and infarct size (AQP-4 [3]): reduce edema and infarct size

CSc1ccc(C(=O)NC(c2ccc3c(c2)CCO3)[C@H]2C[C@@H](O)C2)cc1 (stereo partly shown) [DHA-35]
AQP-2 activity, fluorescence signal (AQP-2): inhibitor

C=CCn1nc(C(=O)N2CCCCCC2)c2c1CCC(NCCCN1CCCC1=O)C2 (stereo not shown) [DHA-6]
AQP-11 activity, fluorescence signal (AQP-11): modulators

COCC(C)n1c(CCCC(=O)N2CCC3(CC2)CNC(=O)C3)nc2cccnc21 (stereo not shown) [DHA-36]
AQP-6 activity, fluorescence signal (AQP-6): inhibitor
